Source: patent US5001143A, “Pharmaceutical composition for prophylactic and preventive of ketosis of livestocks” (Nihon Nohyaku Co., Ltd., priority 1983, dated 1991)

Experiments:
[1] = Toxicity, LD50 (male mice); conditions: mouse, in vivo
[2] = tested on: cows seized by ketosis; assay: Pharmacological test: oral administration of granules to cows seized by ketosis once daily for 6 weeks, blood and urine components with time; type: in vivo; for Ketone bodies in urine: key: +++: Detected noticeably; ++: Detected clearly; +: Slightly detected; -: Not detected
Method: Pharmacological tests for the active ingredient of pharmaceutical composition of the present invention were conducted, by making the active ingredient into granules as in Example 1 and forcibly administering the granules orally to cows seized by ketosis in a predetermined dose once daily for 6 weeks. Examinations of various check items were made for bloods and urines taken from the cows before and 1, 3 and 6 weeks after the administration. In serum biochemical diagnosis, bloods were taken, coagulated and then subjected to centrifugation (3,000 rpm, 15 min.) to obtain respective serums and these serums were used. Blood sugar level was determined by a method using a glucose oxidase; free fatty acids were determined by an ACS-ACO-POD method; and ketone bodies in blood were determined by a diffusion colorimetry using salicyl aldehyde (THIN-ROBERTSON method). Ketone bodies in urine were determined by the use of Labstix (Sankyo Miles).
50 Parts of a compound No. 6, 15.0 parts of light silicic acid anhydride, 5.0 parts of precipitated calcium carbonate, 5.0 parts of corn starch, 2.0 parts of crystalline cellulose, 5.0 parts of a polyvinyl alcohol and 30 parts of water are homogeneously mixed and kneaded. Then, the mixture is ground, pelletized, dried and sifted to prepare granules. The granules are used for curing of ketosis of cows.

[3] = tested on: male mice; assay: Toxicity, LD50 (male mice); conditions: male mice
[4] = 25 mg/kg oral once daily, 1 week after adm.
[5] = 25 mg/kg oral once daily, 3 weeks after adm.
[6] = 25 mg/kg oral once daily, 6 weeks after adm.
[7] = 25 mg/kg oral once daily, before adm.
[8] = 77.2 mg/kg oral once daily, 1 week after adm.
[9] = 77.2 mg/kg oral once daily, 3 weeks after adm.
[10] = 77.2 mg/kg oral once daily, 6 weeks after adm.
[11] = 77.2 mg/kg oral once daily, before adm.
[12] = 50 mg/kg oral once daily, 1 week after adm.
[13] = 50 mg/kg oral once daily, 3 weeks after adm.
[14] = 50 mg/kg oral once daily, 6 weeks after adm.
[15] = 50 mg/kg oral once daily, before adm.
[16] = 100 mg/kg oral once daily, 1 week after adm.
[17] = 100 mg/kg oral once daily, 3 weeks after adm.
[18] = 100 mg/kg oral once daily, 6 weeks after adm.
[19] = 100 mg/kg oral once daily, before adm.

Q: With CC(C)OC(=O)C(C(=O)OC(C)C)=C1SCS1 [compound 1] as the compound, how does the LD50 [1] read?
A: > 5000 mg/kg

Q: Which LD50 [1] does the source give for CCOC(=O)C(C(=O)OC(C)C)=C1SCS1 [compound 2] here?
A: > 5000 mg/kg

Q: What does the source list for CC(C)OC(=O)C(C(=O)OC(C)C)=C1SC(C(=O)O)S1 (stereo not shown) [compound 3]?
A: Acetoacetic acid in blood [2, 4]: 220 µmol/L; Blood sugar level [2, 4]: 38.4 mg/dL; Free fatty acids in blood [2, 4]: 416 μEq/l; Ketone bodies in urine [2, 4]: ++; Acetoacetic acid in blood [2, 5]: 816 µmol/L; Blood sugar level [2, 5]: 34.0 mg/dL; Free fatty acids in blood [2, 5]: 306 μEq/l; Ketone bodies in urine [2, 5]: +; Acetoacetic acid in blood [2, 6]: 400 µmol/L; Blood sugar level [2, 6]: 43.3 mg/dL; Free fatty acids in blood [2, 6]: 418 μEq/l; Ketone bodies in urine [2, 6]: +; Acetoacetic acid in blood [2, 7]: 628 µmol/L; Blood sugar level [2, 7]: 33.0 mg/dL; Free fatty acids in blood [2, 7]: 1,423 μEq/l; Ketone bodies in urine [2, 7]: +++; LD50 [1]: > 5000 mg/kg

Q: Which results are given for CC(C)OC(=O)C(C(=O)OC(C)C)=C1SC=CS1 [compound 4]?
A: Acetoacetic acid in blood [2, 8]: 50 µmol/L; Blood sugar level [2, 8]: 40.3 mg/dL; Free fatty acids in blood [2, 8]: 428 μEq/l; Ketone bodies in urine [2, 8]: ++; Acetoacetic acid in blood [2, 9]: 142 µmol/L; Blood sugar level [2, 9]: 55.4 mg/dL; Free fatty acids in blood [2, 9]: 303 μEq/l; Ketone bodies in urine [2, 9]: +; Acetoacetic acid in blood [2, 10]: 146 µmol/L; Blood sugar level [2, 10]: 57.7 mg/dL; Free fatty acids in blood [2, 10]: 238 μEq/l; Ketone bodies in urine [2, 10]: -; Acetoacetic acid in blood [2, 11]: 446 µmol/L; Blood sugar level [2, 11]: 43.2 mg/dL; Free fatty acids in blood [2, 11]: 1,377 μEq/l; Ketone bodies in urine [2, 11]: +++; LD50 [3]: 3,120 mg/kg

Q: What does the source list for CC(C)OC(=O)C(C(=O)OC(C)C)=C1SCCS1 [compound 6, diisopropyl 1,3-dithiolan-2-ylindene malonate]?
A: Acetoacetic acid in blood [2, 4]: 630 µmol/L; Blood sugar level [2, 4]: 23.5 mg/dL; Free fatty acids in blood [2, 4]: 550 μEq/l; Ketone bodies in urine [2, 4]: ++; Acetoacetic acid in blood [2, 5]: 156 µmol/L; Blood sugar level [2, 5]: 52.9 mg/dL; Free fatty acids in blood [2, 5]: 201 μEq/l; Acetoacetic acid in blood [2, 6]: 104 µmol/L; Blood sugar level [2, 6]: 59.0 mg/dL; Free fatty acids in blood [2, 6]: 351 μEq/l; Acetoacetic acid in blood [2, 7]: 662 µmol/L; Blood sugar level [2, 7]: 30.6 mg/dL; Free fatty acids in blood [2, 7]: 1,148 μEq/l; Ketone bodies in urine [2, 7]: +++; Acetoacetic acid in blood [2, 12]: 1,344 μmol/1; Blood sugar level [2, 12]: 34.3 mg/dL; Free fatty acids in blood [2, 12]: 556.6 μEq/l; Ketone bodies in urine [2, 12]: +; Acetoacetic acid in blood [2, 13]: 608 μmol/1; Blood sugar level [2, 13]: 43.3 mg/dL; Free fatty acids in blood [2, 13]: 507.5 μEq/l; Ketone bodies in urine [2, 13]: -; Acetoacetic acid in blood [2, 14]: 102 μmol/1; Blood sugar level [2, 14]: 64.8 mg/dL; Free fatty acids in blood [2, 14]: 118.2 μEq/l; Ketone bodies in urine [2, 14]: -; Acetoacetic acid in blood [2, 15]: 1,550 μmol/1; Blood sugar level [2, 15]: 33.6 mg/dL; Free fatty acids in blood [2, 15]: 1,862.3 μEq/l; Ketone bodies in urine [2, 15]: +++; LD50 [3]: 1,350 mg/kg

Q: With CC(C)OC(=O)C(C(=O)OC(C)C)=C1SCC[S+]1[O-] (stereo not shown) [compound 7] as the compound, how does the LD50 [1] read?
A: > 6000 mg/kg

Q: What does the source list for CC(C)OC(=O)C(C(=O)OC(C)C)=C1SCC(O)S1 (stereo not shown) [compound 8]?
A: Acetoacetic acid in blood [2, 16]: 260 µmol/L; Blood sugar level [2, 16]: 48.4 mg/dL; Free fatty acids in blood [2, 16]: 476 μEq/l; Ketone bodies in urine [2, 16]: +; Acetoacetic acid in blood [2, 17]: 586 µmol/L; Blood sugar level [2, 17]: 41.0 mg/dL; Free fatty acids in blood [2, 17]: 747 μEq/l; Ketone bodies in urine [2, 17]: +; Acetoacetic acid in blood [2, 18]: 76 µmol/L; Blood sugar level [2, 18]: 53.5 mg/dL; Free fatty acids in blood [2, 18]: 371 μEq/l; Ketone bodies in urine [2, 18]: -; Acetoacetic acid in blood [2, 19]: 1,232 μmol/l; Blood sugar level [2, 19]: 32.0 mg/dL; Free fatty acids in blood [2, 19]: 1,727 μEq/l; Ketone bodies in urine [2, 19]: +++; LD50 [1]: > 6590 mg/kg
